This passage reports relative viability results from the supplement of paper PMC10307832.

What all share (experiment): relative viability (nuclei count vs DMSO), 5 days (fraction); higher = more cells survive
Compound in assay [1]: COc1cccc2c1C(=O)c1c(O)c3c(c(O)c1C2=O)C[C@@](O)(C(=O)CO)C[C@@H]3O[C@H]1C[C@H](N)[C@H](O)[C@H](C)O1 [Doxorubicin] + CCNC(=O)c1noc(-c2cc(C(C)C)c(O)cc2O)c1-c1ccc(CN2CCOCC2)cc1 [Luminespib] (partner 0.01 µM)
The gist of the method: (§1)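 Lung cancer cell lines in 1536-well plates got either a single drug or a fixed anchor-drug dose together with five library-drug doses (not always all listed) in √10 steps, by pin tool, on the day after seeding. Nuclei were counted after 5 days, and relative viability is the treated-to-vehicle ratio of nuclei counts. Values are medians of duplicate plates.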

Compound in assay [2]: COC1=C(C=C(C=C1)C2=CC3=NC=CN3C(=N2)NC4=C(C=CC=N4)C(=O)N)OC [BAY61-3606] + C[C@@H](Oc1cc(-c2cnn(C3CCNCC3)c2)cnc1N)c1c(Cl)ccc(F)c1Cl [Crizotinib] (partner 1 µM)
The gist of the method: as §1

Compound in assay [3]: COc1cccc2c1C(=O)c1c(O)c3c(c(O)c1C2=O)C[C@@](O)(C(=O)CO)C[C@@H]3O[C@H]1C[C@H](N)[C@H](O)[C@H](C)O1 [Doxorubicin] + Cc1nc(Nc2ncc(C(=O)Nc3c(C)cccc3Cl)s2)cc(N2CCN(CCO)CC2)n1 [Dasatinib] (partner 0.075 µM)
The gist of the method:
as §1

Compound in assay [4]: COc1cccc2c1C(=O)c1c(O)c3c(c(O)c1C2=O)C[C@@](O)(C(=O)CO)C[C@@H]3O[C@H]1C[C@H](N)[C@H](O)[C@H](C)O1 [Doxorubicin] + CC1(C)CCC(c2ccc(Cl)cc2)=C(CN2CCN(c3ccc(C(=O)NS(=O)(=O)c4ccc(N[C@H](CCN5CCOCC5)CSc5ccccc5)c(S(=O)(=O)C(F)(F)F)c4)cc3)CC2)C1 [Navitoclax] (partner 0.5 µM)
The gist of the method: as §1

Consider NCI-H2009, for which the relative viability worked out at 1.07 in assay [1] (first compound 0.001 µM); 0.979 in assay [1] (first compound 0.003162 µM); 1.01 in assay [1] (first compound 0.01 µM); 0.925 in assay [1] (first compound 0.03162 µM); 0.582 in assay [1] (first compound 0.1 µM); 1.06 in assay [2] (first compound 0.02 µM). For the same cell line, the relative viability came to 1.12 in assay [2] (first compound 0.06325 µM); 1.01 in assay [2] (first compound 0.2 µM); 1.08 in assay [2] (first compound 0.6325 µM); 0.921 in assay [2] (first compound 2 µM); 0.308 in assay [3] (first compound 0.001 µM); 0.319 in assay [3] (first compound 0.003162 µM). The relative viability in assay [3] (first compound 0.01 µM) was 0.296; in assay [3] (first compound 0.03162 µM), 0.272; in assay [3] (first compound 0.1 µM), 0.235; in assay [4] (first compound 0.001 µM), 1.21; in assay [4] (first compound 0.003162 µM), 1.15; in assay [4] (first compound 0.01 µM) it was 1.17. Besides, the relative viability in assay [4] (first compound 0.03162 µM) stood at 0.962; in assay [4] (first compound 0.1 µM) it was 0.604.

With NCI-H2023, the relative viability came to 0.765 in assay [1] (first compound 0.001 µM); 0.677 in assay [1] (first compound 0.003162 µM); 0.243 in assay [1] (first compound 0.01 µM); 0.0918 in assay [1] (first compound 0.03162 µM); 0.0632 in assay [1] (first compound 0.1 µM); 0.713 in assay [2] (first compound 0.02 µM). For the same cell line, the relative viability amounted to 0.61 in assay [2] (first compound 0.06325 µM); 0.703 in assay [2] (first compound 0.2 µM); 0.751 in assay [2] (first compound 0.6325 µM); 0.53 in assay [2] (first compound 2 µM); 0.672 in assay [3] (first compound 0.001 µM); 0.588 in assay [3] (first compound 0.003162 µM). For the same cell line, the relative viability in assay [3] (first compound 0.01 µM) worked out at 0.431; in assay [3] (first compound 0.03162 µM), 0.173; in assay [3] (first compound 0.1 µM), 0.0859; in assay [4] (first compound 0.001 µM), 0.956; in assay [4] (first compound 0.003162 µM) it was 1.05; in assay [4] (first compound 0.01 µM), 0.886. Moreover, the relative viability came out at 0.482 in assay [4] (first compound 0.03162 µM) and 0.16 in assay [4] (first compound 0.1 µM).

NCI-H2085: the relative viability in assay [1] (first compound 0.001 µM) turned out to be 0.471; in assay [1] (first compound 0.003162 µM) it was 0.462; in assay [1] (first compound 0.01 µM) it was 0.46; in assay [1] (first compound 0.03162 µM) it was 0.47; in assay [1] (first compound 0.1 µM) it was 0.478; in assay [2] (first compound 0.02 µM), 0.858. The relative viability was 0.882 in assay [2] (first compound 0.06325 µM); 0.87 in assay [2] (first compound 0.2 µM); 0.863 in assay [2] (first compound 0.6325 µM); 0.702 in assay [2] (first compound 2 µM); 0.286 in assay [3] (first compound 0.001 µM); 0.278 in assay [3] (first compound 0.003162 µM). Further, the relative viability in assay [3] (first compound 0.01 µM) was determined as 0.224; in assay [3] (first compound 0.03162 µM) it was 0.224; in assay [3] (first compound 0.1 µM) it was 0.241; in assay [4] (first compound 0.001 µM) it was 1.28; in assay [4] (first compound 0.003162 µM) it was 1.24; in assay [4] (first compound 0.01 µM), 1.09. Besides, the relative viability is 0.882 in assay [4] (first compound 0.03162 µM) and 1.01 in assay [4] (first compound 0.1 µM).

Regarding NCI-H2087, the relative viability in assay [1] (first compound 0.003162 µM) turned out to be 0.19; in assay [1] (first compound 0.01 µM), 0.14; in assay [1] (first compound 0.03162 µM) it was 0.133; in assay [1] (first compound 0.1 µM), 0.144; in assay [2] (first compound 0.02 µM) it was 0.585; in assay [2] (first compound 0.06325 µM), 0.931. The relative viability in assay [2] (first compound 0.2 µM) is 0.818; in assay [2] (first compound 0.6325 µM), 0.863; in assay [2] (first compound 2 µM), 0.619; in assay [3] (first compound 0.003162 µM) it was 0.844; in assay [3] (first compound 0.01 µM) it was 0.769; in assay [3] (first compound 0.03162 µM), 0.475. The relative viability was 0.222 in assay [3] (first compound 0.1 µM); 0.973 in assay [4] (first compound 0.001 µM); 1.05 in assay [4] (first compound 0.003162 µM); 1.05 in assay [4] (first compound 0.01 µM); 0.967 in assay [4] (first compound 0.03162 µM); 0.918 in assay [4] (first compound 0.1 µM).

Turning to NCI-H2126, the relative viability in assay [1] (first compound 0.001 µM) was determined as 0.643; in assay [1] (first compound 0.003162 µM), 0.88; in assay [1] (first compound 0.01 µM), 0.817; in assay [1] (first compound 0.03162 µM), 0.394; in assay [1] (first compound 0.1 µM), 0.286; in assay [2] (first compound 0.02 µM), 1.06. The relative viability in assay [2] (first compound 0.06325 µM) was determined as 1.01; in assay [2] (first compound 0.2 µM), 1; in assay [2] (first compound 0.6325 µM), 0.973; in assay [2] (first compound 2 µM), 0.893; in assay [3] (first compound 0.001 µM) it was 0.619; in assay [3] (first compound 0.003162 µM), 0.556. The relative viability in assay [3] (first compound 0.01 µM) turned out to be 0.55; in assay [3] (first compound 0.03162 µM) it was 0.232; in assay [3] (first compound 0.1 µM), 0.224; in assay [4] (first compound 0.001 µM) it was 0.853; in assay [4] (first compound 0.003162 µM), 0.826; in assay [4] (first compound 0.01 µM), 0.864. Moreover, the relative viability is 0.884 in assay [4] (first compound 0.03162 µM) and 0.928 in assay [4] (first compound 0.1 µM).

Turning to NCI-H2170, the relative viability stood at 0.484 in assay [1] (first compound 0.001 µM); 0.89 in assay [1] (first compound 0.003162 µM); 0.772 in assay [1] (first compound 0.01 µM); 0.5 in assay [1] (first compound 0.03162 µM); 0.758 in assay [1] (first compound 0.1 µM); 1.27 in assay [2] (first compound 0.02 µM). Also, the relative viability was found to be 1.27 in assay [2] (first compound 0.06325 µM); 1.19 in assay [2] (first compound 0.2 µM); 1.16 in assay [2] (first compound 0.6325 µM); 0.87 in assay [2] (first compound 2 µM); 0.625 in assay [3] (first compound 0.001 µM); 0.687 in assay [3] (first compound 0.003162 µM). Moreover, the relative viability in assay [3] (first compound 0.01 µM) was 0.455; in assay [3] (first compound 0.03162 µM) it was 0.436; in assay [3] (first compound 0.1 µM) it was 0.553; in assay [4] (first compound 0.001 µM), 0.584; in assay [4] (first compound 0.003162 µM) it was 0.726; in assay [4] (first compound 0.01 µM), 0.567. Moreover, the results for the relative viability in assay [4] (first compound 0.03162 µM) and in assay [4] (first compound 0.1 µM) were 0.389 and 0.597, respectively.

Turning to NCI-H2228, the relative viability in assay [1] (first compound 0.001 µM) was 0.208; in assay [1] (first compound 0.003162 µM), 0.139; in assay [1] (first compound 0.01 µM), 0.2; in assay [1] (first compound 0.03162 µM) it was 0.151; in assay [1] (first compound 0.1 µM), 0.135; in assay [2] (first compound 0.02 µM), 0.483. For the same cell line, the relative viability amounted to 0.405 in assay [2] (first compound 0.06325 µM); 0.526 in assay [2] (first compound 0.2 µM); 0.378 in assay [2] (first compound 0.6325 µM); 0.478 in assay [2] (first compound 2 µM); 0.45 in assay [3] (first compound 0.001 µM); 0.598 in assay [3] (first compound 0.003162 µM). The relative viability in assay [3] (first compound 0.01 µM) was 0.483; in assay [3] (first compound 0.03162 µM), 0.229; in assay [3] (first compound 0.1 µM), 0.112; in assay [4] (first compound 0.001 µM) it was 1.24; in assay [4] (first compound 0.003162 µM), 0.752; in assay [4] (first compound 0.01 µM) it was 0.876. Further, the relative viability in assay [4] (first compound 0.03162 µM) stood at 0.552; in assay [4] (first compound 0.1 µM), 0.321.
